Patent US11020415B2, “Use of albiflorin in preparation of products for improving function of intestinal flora system” (priority 2016, dated 2021)

Legend:
[1] = system: intestinal flora in stressed rats; assay: Targeted metabolomics of intestinal flora metabolism in chronic unpredictable mild stress (CUMS) model rats (PLS-DA, VIP analysis); assay type: in vivo, rat
Method: We established a chronic unpredictable mild stress (CUMS) model of rats, and used a new generation of targeted metabolomics method to study the metabolic function of intestinal flora in stressed rats.
(§1) We further administered the stressed model rats an albiflorin treatment for 7 consecutive days at each dose of 7 mg/k& for each treatment. 7 days later, we used metabolomics and a 16sDNA high-throughput metagenomic sequencing technology to re-evaluate the function and composition of intestinal flora in the rats. […] This was consistent with the results of analysis of flora composition.
As a positive drug, fluoxetine was continuously administered for 7 days at each dose of 10 mg/kg/d.

cannabinoid receptor CB2 = cannabinoid receptor CB2 (Homo sapiens, UniProt P34972); assay: Cannabinoid receptor CB2 activity (stated, no method); conditions: stated as finding of the invention's research; no data or method printed
[2] = system: intestinal flora in stressed rats; assay: High-throughput 16s metagenomic sequencing of intestinal flora composition in CUMS model rats (cluster analysis); assay type: in vivo, rat; conditions: albiflorin 7 days
Method: as §1
FIG. 5 is a graph showing the cluster analysis of intestinal flora composition correlation.

[3] = after 7 days of administration of albiflorin

Sequence of cannabinoid receptor CB2 (P34972 whole entry): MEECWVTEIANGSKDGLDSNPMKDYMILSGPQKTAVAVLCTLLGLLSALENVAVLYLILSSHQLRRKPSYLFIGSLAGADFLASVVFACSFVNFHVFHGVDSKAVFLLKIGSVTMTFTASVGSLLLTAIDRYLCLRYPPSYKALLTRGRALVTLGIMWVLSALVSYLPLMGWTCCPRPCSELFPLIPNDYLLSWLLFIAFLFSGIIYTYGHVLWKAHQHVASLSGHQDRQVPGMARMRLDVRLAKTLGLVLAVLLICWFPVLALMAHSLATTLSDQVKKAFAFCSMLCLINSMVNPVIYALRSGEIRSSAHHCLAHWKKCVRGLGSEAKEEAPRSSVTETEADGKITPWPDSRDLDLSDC

Row | SMILES | Amounts of cholic acid, amino acids and vitamins (intestinal flora metabolites) compared with the depression group [1, 3] | Overall metabolism of intestinal flora compared with the depression group (VIP analysis) [1, 3] | Metabolism of intestinal flora relative to the normal group (PLS-DA multiple comparative analysis of metabolomics data) ([1]; albiflorin 7 consecutive days, 7 mg/k&, FIG. 1) | Action at cannabinoid receptor CB2 (cannabinoid receptor CB2) | Amount of probiotic firmicutes, especially lactic acid bacteria, compared with the stressed rat model group [2] | Intestinal flora composition versus blank group (Control), cluster analysis [2] | Metabolism of rat intestinal flora relative to the normal state (multivariable PLS-DA analysis) ([1]; fluoxetine 7 days, 10 mg/kg/d, FIG. 6)
1 | C[C@]12C[C@@H](O)[C@@H]3C[C@@]1(O[C@@H]1O[C@H](CO)[C@@H](O)[C@H](O)[C@H]1O)[C@@]3(COC(=O)c1ccccc1)C(=O)O2 [albiflorin] | increased | significantly improved | almost completely overlapped with the normal group | agonist | significantly increased | no statistical difference (P>0.05) | –
2 | CNCCC(Oc1ccc(C(F)(F)F)cc1)c1ccccc1 (stereo not shown) [fluoxetine, reference compound] | – | – | – | – | – | – | deviated the metabolism of rat intestinal flora more from the normal state
